Experiments:
[1] = Functional Dkk1-LRP5-TCF-Luciferase Assay in U2OS Cells (table columns: A=MAX FOLD Induction/DMSO CONTROL; B=fold induction @ 2.0 uM; C=fold induction @ 20.0 uM); type: cell-based, Human; settings: Homo sapiens; for fold induction at 2 µM / fold induction at 20 µM: U2OS; for fold induction at 2 µM: 2.0 uM compound; for fold induction at 20 µM: 20.0 uM compound; for EC50: U2OS cells, TCF-luciferase reporter
In short: (§1)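 U2OS cells co-transfected with 16×TCF-TK-firefly luciferase, TK-Renilla control, Wnt3a and Dkk1, then frozen; thawed cells (~5,000/well, ~5% FBS, phenol red-free RPMI) incubated ~20 h at 37° C. with compound (0.25% DMSO). Firefly luminescence (Bright-Glo) normalized to DMSO mean as fold induction.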

[2] = tested on: canonical Wnt-β-catenin cellular messaging system (16xTCF-TK-FireFly-Luci reporter, Wnt3a and Dkk1 co-transfected U2OS cells); assay: as above; type: cell-based, Human; settings: maximum fold induction over DMSO control
In short: as §1

Row | EC50 [1] [µM] | A = MAX FOLD Induction/DMSO CONTROL [2] | Compound | fold induction at 2 µM [1] | fold induction at 20 µM [1]
1 | 0.725 | 3.881 | c1ccc2cc(-c3ccnc4c3ncn4C3CCNCC3)ccc2c1 [7-(2-naphthyl)-3-piperidin-4-yl-3H-imidazo[4,5-b]pyridine] | 5.4 | 0.063
2 | – | 1.080 | CN(C)C(=O)N1CCC(n2cnc3c(-c4ccc5ccccc5c4)ccnc32)CC1 [N,N-dimethyl-4-[7-(2-naphthyl)-3H-imidazo[4,5-b]pyridin-3-yl]piperidine-1-carboxamide] | 1.94 | 2.09
3 | 10.7 | 12.158 | O=C1OC2(c3ccc(O)cc3Oc3cc(O)ccc32)c2ccc(NC(=S)N3CCC(n4cnc5c(-c6ccc7ccccc7c6)ccnc54)CC3)cc21 [N-(3′,6′-dihydroxy-3-oxo-3H-spiro[2-benzofuran-1,9′-xanthen]-5-yl)-4-[7-(2-naphthyl)-3H-imidazo[4,5-b]pyridin-3-yl]piperidine-1-carbothioamide] | 1.4 | 6.49
4 | – | 1.710 | CC(=O)Nc1ccc(-c2nc3c(-c4ccc5ccccc5c4)ccnc3n2C2CCNCC2)cc1 [N-{4-[7-(2-naphthyl)-3-piperidin-4-yl-3H-imidazo[4,5-b]pyridin-2-yl]phenyl}acetamide] | 1.99 | –
